The record followed here is article PMC4770306, “Structure-Based Identification of Inhibitory Fragments Targeting the p300/CBP-Associated Factor Bromodomain” (Journal of Medicinal Chemistry, 2016).

What all share (assay type): binding
Assay [1] addresses T1, PCAF bromodomain (Homo sapiens, UniProt Q92831).
T1 construct: The PCAF bromodomain (aa 715–831) containing an N-terminal His6-tag was recombinantly expressed in Escherichia coli Rosetta; His6 (N, cleaved yes); made in house; host or cells: Escherichia coli Rosetta
T1 sequence (Q92831 715-831): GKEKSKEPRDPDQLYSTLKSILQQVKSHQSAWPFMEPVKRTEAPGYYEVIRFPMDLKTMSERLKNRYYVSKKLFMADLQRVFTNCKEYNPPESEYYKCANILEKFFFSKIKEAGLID
As to the kind of experiment: Thermal stability shift assay (DSF), PCAF bromodomain. As to conditions: compound 1 mM, protein 2 μM, average of triplicates.

Assay [2] concerns the target T2, BAZ1BA (Homo sapiens, UniProt Q9UIG0).
T2 sequence (Q9UIG0 1-1483): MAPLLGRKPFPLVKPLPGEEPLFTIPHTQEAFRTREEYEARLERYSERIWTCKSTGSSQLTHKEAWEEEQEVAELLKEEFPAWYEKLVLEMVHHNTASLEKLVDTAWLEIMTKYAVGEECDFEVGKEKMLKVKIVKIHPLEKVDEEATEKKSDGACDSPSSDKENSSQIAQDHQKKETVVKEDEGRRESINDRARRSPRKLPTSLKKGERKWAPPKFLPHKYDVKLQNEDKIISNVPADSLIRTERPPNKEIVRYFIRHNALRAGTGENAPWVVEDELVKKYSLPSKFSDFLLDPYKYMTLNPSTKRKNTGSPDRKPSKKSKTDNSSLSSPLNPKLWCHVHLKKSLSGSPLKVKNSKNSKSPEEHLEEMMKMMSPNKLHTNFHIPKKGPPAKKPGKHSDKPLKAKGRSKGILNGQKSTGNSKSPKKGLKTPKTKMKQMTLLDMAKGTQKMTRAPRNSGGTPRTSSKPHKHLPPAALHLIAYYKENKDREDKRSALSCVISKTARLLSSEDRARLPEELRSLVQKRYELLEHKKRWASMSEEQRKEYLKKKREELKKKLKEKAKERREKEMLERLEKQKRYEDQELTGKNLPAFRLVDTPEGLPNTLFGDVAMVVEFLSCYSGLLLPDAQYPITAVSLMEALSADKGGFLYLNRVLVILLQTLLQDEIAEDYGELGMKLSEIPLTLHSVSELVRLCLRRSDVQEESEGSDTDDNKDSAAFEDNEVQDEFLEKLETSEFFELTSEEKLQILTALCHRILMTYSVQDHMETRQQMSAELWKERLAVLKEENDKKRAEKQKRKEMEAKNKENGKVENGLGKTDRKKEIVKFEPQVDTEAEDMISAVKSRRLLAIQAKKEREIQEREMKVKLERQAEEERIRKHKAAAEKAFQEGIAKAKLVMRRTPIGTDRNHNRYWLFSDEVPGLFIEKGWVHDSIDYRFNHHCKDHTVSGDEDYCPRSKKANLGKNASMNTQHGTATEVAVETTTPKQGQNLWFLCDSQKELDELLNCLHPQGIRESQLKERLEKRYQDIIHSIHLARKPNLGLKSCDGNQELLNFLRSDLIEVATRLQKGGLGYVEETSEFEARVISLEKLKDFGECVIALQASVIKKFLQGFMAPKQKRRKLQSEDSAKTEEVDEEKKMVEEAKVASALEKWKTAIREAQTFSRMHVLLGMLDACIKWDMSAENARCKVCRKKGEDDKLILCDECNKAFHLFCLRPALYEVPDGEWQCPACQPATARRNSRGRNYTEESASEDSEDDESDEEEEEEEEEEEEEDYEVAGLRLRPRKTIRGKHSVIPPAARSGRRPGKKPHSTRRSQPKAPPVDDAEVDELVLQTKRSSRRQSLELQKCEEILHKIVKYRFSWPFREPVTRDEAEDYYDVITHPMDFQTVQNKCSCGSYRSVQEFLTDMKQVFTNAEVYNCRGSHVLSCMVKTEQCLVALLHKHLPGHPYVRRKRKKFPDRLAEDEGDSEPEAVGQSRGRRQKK
As to the kind of experiment: Alphascreen assay BAZ1BA. Background: In Alpha technology, singlet oxygen from a donor bead excites a nearby acceptor bead.

Assay [3] addresses T3, BRD9A (Homo sapiens, UniProt Q9H8M2).
T3 sequence (Q9H8M2 1-597): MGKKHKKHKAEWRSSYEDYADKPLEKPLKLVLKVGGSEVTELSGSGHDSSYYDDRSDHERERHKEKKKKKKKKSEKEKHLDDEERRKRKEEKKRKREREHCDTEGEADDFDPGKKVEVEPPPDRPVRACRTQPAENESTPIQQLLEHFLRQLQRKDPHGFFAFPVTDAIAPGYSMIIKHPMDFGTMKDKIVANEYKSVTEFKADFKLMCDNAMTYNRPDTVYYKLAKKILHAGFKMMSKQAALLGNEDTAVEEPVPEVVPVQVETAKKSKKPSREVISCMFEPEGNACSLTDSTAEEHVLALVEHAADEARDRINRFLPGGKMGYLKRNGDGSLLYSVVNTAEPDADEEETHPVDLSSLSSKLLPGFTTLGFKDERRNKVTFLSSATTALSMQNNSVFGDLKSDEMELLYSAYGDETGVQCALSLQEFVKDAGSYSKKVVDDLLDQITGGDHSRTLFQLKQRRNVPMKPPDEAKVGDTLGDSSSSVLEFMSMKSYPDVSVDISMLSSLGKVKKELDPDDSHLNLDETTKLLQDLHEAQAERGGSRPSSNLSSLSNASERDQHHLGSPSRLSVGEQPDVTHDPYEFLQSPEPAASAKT
Description: Alphascreen assay BRD9A. To be noted: for % Inhibition at 25 µM / inhibition at 25 µM: BRD9A; for IC50: read-out: BRD9 IC50.

Structures are written as SMILES.

Regarding `CC(=O)Nc1ccc2c(C)cc(=O)n(C)c2c1` [compound 12, N-(1,4-dimethyl-2-oxo-1,2-dihydroquinolin-7-yl)acetamide], the “ΔTm (°C) at 1 mM (± SEM)” value in assay [1] is 2.6–2.9 °C. Besides, the inhibition at 25 µM in assay [2] was determined as 0.7%. Also, in assay [3], the “% Inhibition at 25 µM” value is listed as “strong inhibition”, the inhibition at 25 µM was determined as 82.8% and the IC50 is 12.5 µM.

For `Cc1cc(=O)n(C)c2cc(NS(C)(=O)=O)ccc12` [compound 13, N-(1,4-dimethyl-2-oxo-1,2-dihydroquinolin-7-yl)methanesulfonam], in assay [2], the inhibition at 25 µM is -0.2%. Moreover, in assay [3], the “% Inhibition at 25 µM” value was “strong inhibition”, the inhibition at 25 µM came out at 84.1% and the 50% inhibitory concentration (IC50) was found to be 5.7 µM.

As usually defined, the inhibition is the relative decrease from the control value, in per cent. Broadly, the IC50 is the concentration at which inhibition is half-maximal.
